What follows are compounds tested on acute HIV infection of T-lymphoid cells (assay: Assay for inhibition of HIV replication (spread assay)). Conditions: Human immunodeficiency virus 1, T-lymphoid, read-out: IC95, inhibition of HIV replication in spread assay.
Format: cell-based
Protocol: An assay for the inhibition of acute HIV infection of T-lymphoid cells (alternatively referred to herein as the “spread assay”) was conducted in accordance with Vacca, J. P. et al., Proc. Natl. Acad. Sci. USA 1994, 91: 4096.

`CCOC(=O)c1[nH]c2ccc(Cl)cc2c1S(=O)(=O)CC1CCCCC1` [Example 22, ethyl 5-chloro-3-[(cyclohexylmethyl)sulfonyl]-1H-indole-2-carboxylate] and `NC(=O)c1[nH]c2ccc(Cl)cc2c1S(=O)(=O)CC1CCCCC1` [Example 33, 5-chloro-3-[(cyclohexylmethyl)sulfonyl]-1H-indole-2-carboxamide] cannot be ordered by IC95: no more than 10 µM for the first, no more than 10 µM for the second.

`CCOC(=O)c1[nH]c2ccc(Cl)cc2c1SCC1CCCCC1` [Example 11, ethyl 5-chloro-3-[(cyclohexylmethyl)thio]-1H-indole-2-carboxylate] showed an IC95 of no more than 10 µM.

Same assay, conditions: Human immunodeficiency virus 1; T-lymphoid cells; tested up to 10 micromolar; read-out: IC95, inhibition of HIV replication in spread assay

`CCOC(=O)c1[nH]c2ccc(Cl)cc2c1S(=O)(=O)CCCC(F)(F)F` [Example 15, ethyl 5-chloro-3-[(4,4,4,-trifluorobutyl)sulfonyl]-1H-indole-2-carboxylate] and `CCOC(=O)c1[nH]c2ccc(Cl)cc2c1S(=O)(=O)CCC(F)(F)F` [Example 14, ethyl 5-chloro-3-[(3,3,3-trifluoropropyl)sulfonyl]-1H-indole-2-carboxylate] cannot be ordered by IC95: greater than 10 µM for the first, greater than 10 µM for the second.

`CCOC(=O)c1[nH]c2ccc(Cl)cc2c1S(=O)(=O)C1CC1` [Example 16, ethyl 5-chloro-3-(cyclopropylsulfonyl)-1H-indole-2-carboxylate] and `CCOC(=O)c1[nH]c2ccc(Cl)cc2c1S(=O)(=O)C1CCC1` [Example 19, ethyl 5-chloro-3-(cyclobutylsulfonyl)-1H-indole-2-carboxylate] cannot be ordered by IC95: greater than 10 µM for the first, greater than 10 µM for the second.

`CCOC(=O)c1[nH]c2ccc(Cl)cc2c1S(=O)(=O)CCC1CC1` [Example 18, ethyl 5-chloro-3-[(2-cyclopropylethyl)sulfonyl]-1H-indole-2-carboxylate] and `CCOC(=O)c1[nH]c2ccc(Cl)cc2c1S(=O)(=O)CC1CC1` [Example 17, ethyl 5-chloro-3-[(cyclopropylmethyl)sulfonyl]-1H-indole-2-carboxylate] cannot be ordered by IC95: no more than 10 µM for the first, no more than 10 µM for the second.

`NC(=O)c1[nH]c2ccc(Cl)cc2c1S(=O)(=O)C1CCCC1` [Example 30, 5-chloro-3-(cyclopentylsulfonyl)-1H-indole-2-carboxamide] and `NC(=O)c1[nH]c2ccc(Cl)cc2c1S(=O)(=O)C1CCCCC1` [Example 31, 5-chloro-3-(cyclohexylsulfonyl)-1H-indole-2-carboxamide] cannot be ordered by IC95: no more than 10 µM for the first, no more than 10 µM for the second.

`CCOC(=O)c1[nH]c2ccc(Cl)cc2c1SCCC1CC1` [Example 8, ethyl 5-chloro-3-[(2-cyclopropylethyl)thio]-1H-indole-2-carboxylate] and `CCOC(=O)c1[nH]c2ccc(Cl)cc2c1SCC1CCC1` [Example 1, Ethyl 5-chloro-3-(cyclobutylmethylthio)-1H-indole-2-carboxylate] cannot be ordered by IC95: no more than 10 µM for the first, no more than 10 µM for the second.

`CC(C)CCS(=O)(=O)c1c(C(=O)NCc2nccn2C)[nH]c2ccc(Cl)cc12` [Example 39, 5-Chloro-3-[(3-methylbutyl)sulfonyl]-N-[(1-methyl-1H-imidazol-2-yl)methyl]-1-indole-2-carboxamid-indole-2-carboxamide] and `CC(C)CCS(=O)(=O)c1c(C(=O)NCc2n[nH]c3ccccc23)[nH]c2ccc(Cl)cc12` [Example 40, 5-Chloro-N-(1H-indazol-3-ylmethyl)-3-[(3-methylbutyl)sulfonyl]-1H-indole-2-carboxamide] cannot be ordered by IC95: no more than 10 µM for the first, no more than 10 µM for the second.

`NC(=O)c1[nH]c2ccc(Cl)cc2c1S(=O)(=O)C1CCC1` [Example 29, 5-chloro-3-(cyclobutylsulfonyl)-1H-indole-2-carboxamide] and `NC(=O)c1[nH]c2ccc(Cl)cc2c1S(=O)(=O)C1CC1` [Example 26, 5-chloro-3-(cyclopropylsulfonyl)-1H-indole-2-carboxamide] cannot be ordered by IC95: no more than 10 µM for the first, no more than 10 µM for the second.

`CCOC(=O)c1[nH]c2ccc(Cl)cc2c1S(=O)(=O)C1CCCCC1` [Example 21, ethyl 5-chloro-3-(cyclohexylsulfonyl)-1H-indole-2-carboxylate] and `CCOC(=O)c1[nH]c2ccc(Cl)cc2c1S(=O)(=O)C1CCCC1` [Example 20, ethyl 5-chloro-3-(cyclopentylsulfonyl)-1H-indole-2-carboxylate] cannot be ordered by IC95: greater than 10 µM for the first, greater than 10 µM for the second.

`NC(=O)c1[nH]c2ccc(Cl)cc2c1S(=O)(=O)CCCC(F)(F)F` [Example 25, 5-chloro-3-[(4,4,4-trifluorobutyl)sulfonyl]-1H-indole-2-carboxamide] and `NC(=O)c1[nH]c2ccc(Cl)cc2c1S(=O)(=O)CCC(F)(F)F` [Example 24, 5-chloro-3-[(3,3,3-trifluoropropyl)sulfonyl]-1H-indole-2-carboxamide] cannot be ordered by IC95: no more than 10 µM for the first, no more than 10 µM for the second.

`CCOC(=O)c1[nH]c2ccc(Cl)cc2c1SC1CC1` [Example 6, ethyl 5-chloro-3-(cyclopropylthio)-1H-indole-2-carboxylate] and `CCOC(=O)c1[nH]c2ccc(Cl)cc2c1SC1CCC1` [Example 9, ethyl 5-chloro-3-(cyclobutylthio)-1H-indole-2-carboxylate] cannot be ordered by IC95: greater than 10 µM for the first, no more than 10 µM for the second.

`CCOC(=O)c1[nH]c2ccc(Cl)cc2c1S(=O)(=O)CC1CCC1` [Example 13, Ethyl 5-chloro-3-(cyclobutylmethylsulfonyl)-1H-indole-2-carboxylate] and `NC(=O)c1[nH]c2ccc(Cl)cc2c1S(=O)(=O)CC1CCC1` [Example 23, 5-Chloro-3-(cyclobutylmethylsulfonyl)-1H-indole-2-carboxamide] cannot be ordered by IC95: no more than 10 µM for the first, no more than 10 µM for the second.

`NC(=O)c1[nH]c2ccc(Cl)cc2c1S(=O)(=O)CC(F)(F)C(F)F` [Example 38, 5-chloro-3-[(2,2,3,3-tetrafluoropropyl)sulfonyl]-1H-indole-2-carboxamide] and `CC(CC(F)(F)F)S(=O)(=O)c1c(C(N)=O)[nH]c2ccc(Cl)cc12` (stereo not drawn) [Example 34, 5-chloro-3-[(3,3,3-trifluoro-1-methylpropyl)sulfonyl]-1H-indole-2-carboxamide] cannot be ordered by IC95: greater than 10 µM for the first, no more than 10 µM for the second.

`NC(=O)c1[nH]c2ccc(Cl)cc2c1S(=O)(=O)CC1CC(F)(F)C1(F)F` (stereo not drawn) [Example 37] and `NC(=O)c1[nH]c2ccc(Cl)cc2c1S(=O)(=O)CC1CC1` [Example 27, 5-chloro-3-[(cyclopropylmethyl)sulfonyl]-1H-indole-2-carboxamide] cannot be ordered by IC95: no more than 10 µM for the first, no more than 10 µM for the second.

`CCOC(=O)c1[nH]c2ccc(Cl)cc2c1SC1CCCCC1` [Example 12, Ethyl 5-chloro-3-(cyclohexylthio)-1H-indole-2-carboxylate] and `CCOC(=O)c1[nH]c2ccc(Cl)cc2c1SC1CCCC1` [Example 10, ethyl 5-chloro-3-(cyclopentylthio)-1H-indole-2-carboxylate] cannot be ordered by IC95: no more than 10 µM for the first, no more than 10 µM for the second.

`CCOC(=O)c1[nH]c2ccc(Cl)cc2c1SCC(F)(F)F` [Example 2, ethyl 5-chloro-3-[(2,2,2-trifluoroethyl)thio]-1H-indole-2-carboxylate] and `CCOC(=O)c1[nH]c2ccc(Cl)cc2c1SCCC(F)(F)F` [Example 3, ethyl 5-chloro-3-[(3,3,3-trifluoropropyl)thio]-1H-indole-2-carboxylate] cannot be ordered by IC95: greater than 10 µM for the first, no more than 10 µM for the second.

`CCOC(=O)c1[nH]c2ccc(Cl)cc2c1SCC(F)(F)C(F)(F)F` [Example 5, ethyl 5-chloro-3-[(2,2,3,3,3-pentafluoropropyl)thio]-1H-indole-2-carboxylate] and `CCOC(=O)c1[nH]c2ccc(Cl)cc2c1SCCCC(F)(F)F` [Example 4, ethyl 5-chloro-3-[(4,4,4-trifluorobutyl)thio]-1H-indole-2-carboxylate] cannot be ordered by IC95: no more than 10 µM for the first, greater than 10 µM for the second.

`NC(=O)c1[nH]c2ccc(Cl)cc2c1S(=O)(=O)CCC1CC1` [Example 28, 5-chloro-3-[(2-cyclopropylethyl)sulfonyl]-1H-indole-2-carboxamide] and `NC(=O)c1[nH]c2ccc(Cl)cc2c1S(=O)(=O)C1C=CCCC1` (stereo not drawn) [Example 32, 5-chloro-3-(cyclohex-2-en-1-ylsulfonyl)-1H-indole-2-carboxamide] cannot be ordered by IC95: no more than 10 µM for the first, no more than 10 µM for the second.

What follows are compounds tested against T1, mutant HIV reverse transcriptase, K103N mutation (Human immunodeficiency virus type 1 group M subtype B, UniProt P04585, K690N) (assay: Analogous RT inhibition assay, K103N mutant). Conditions: RT with K103N mutation.
T1 construct: made in house
Format: biochemical
Protocol: Analogous assays were conducted substituting mutant HIV strains to determine the […] inhibition of compounds of the present invention against mutant HIV reverse transcriptase. In one strain the reverse transcriptase has the Y181C mutation and in the other strain the reverse transcriptase has the K103N mutation. The mutations were generated with the […] site-directed mutagenesis kit (Stratagene).

`CC(C)CCS(=O)(=O)c1c(C(=O)NCc2nccn2C)[nH]c2ccc(Cl)cc12` [Example 39, 5-Chloro-3-[(3-methylbutyl)sulfonyl]-N-[(1-methyl-1H-imidazol-2-yl)methyl]-1-indole-2-carboxamid-indole-2-carboxamide] and `CC(C)CCS(=O)(=O)c1c(C(=O)NCc2n[nH]c3ccccc23)[nH]c2ccc(Cl)cc12` [Example 40, 5-Chloro-N-(1H-indazol-3-ylmethyl)-3-[(3-methylbutyl)sulfonyl]-1H-indole-2-carboxamide] cannot be ordered by IC50: less than 2 µM for the first, less than 2 µM for the second.
